This note sets out measurements from ChEMBL document CHEMBL1155398, “Design and evaluation of Trypanosoma brucei metacaspase inhibitors” (Bioorg Med Chem Lett, 2010).

The IC50 is the point on the concentration scale where inhibition reaches its midpoint. Lower therefore signals greater potency in that assay.

Test [1] deals with Trypanosoma brucei brucei. Description: Antiparasitic activity against Trypanosoma brucei brucei bloodstream form. The format is functional, organism-based.
The target of a further test is T1, Metacaspase-2 (Trypanosoma brucei, UniProt Q8T8E7).
T1 sequence (Q8T8E7 whole entry): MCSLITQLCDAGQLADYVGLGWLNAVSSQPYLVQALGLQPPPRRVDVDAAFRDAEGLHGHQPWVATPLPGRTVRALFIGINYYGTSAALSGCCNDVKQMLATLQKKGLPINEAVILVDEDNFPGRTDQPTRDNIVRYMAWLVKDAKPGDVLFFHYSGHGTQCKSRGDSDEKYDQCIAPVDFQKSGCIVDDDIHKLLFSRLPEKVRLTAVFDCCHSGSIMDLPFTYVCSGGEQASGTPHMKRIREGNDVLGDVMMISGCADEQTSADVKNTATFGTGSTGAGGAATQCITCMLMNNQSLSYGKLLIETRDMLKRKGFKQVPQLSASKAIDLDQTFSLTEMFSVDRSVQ
Description: Inhibition of Trypanosoma brucei MAC2.

The test system of a further test is Plasmodium falciparum. Description: Antiparasitic activity against Plasmodium falciparum ring stage and schizont. The format is functional, organism-based.
The subject of a further test is Leishmania infantum. Description: Antiparasitic activity against Leishmania infantum amastigotes. The class given is functional, organism-based.
A further test relates to MRC5. Description: Cytotoxicity against human MRC5 cells. The format is cell-based.
The next test has as its system Trypanosoma cruzi. Description: Antiparasitic activity against Trypanosoma cruzi amastigotes. The format is functional, organism-based.
The target of test [2] is T2, Metacaspase-3 (Trypanosoma brucei) (UniProt Q8T8E6).
T2 sequence (whole entry): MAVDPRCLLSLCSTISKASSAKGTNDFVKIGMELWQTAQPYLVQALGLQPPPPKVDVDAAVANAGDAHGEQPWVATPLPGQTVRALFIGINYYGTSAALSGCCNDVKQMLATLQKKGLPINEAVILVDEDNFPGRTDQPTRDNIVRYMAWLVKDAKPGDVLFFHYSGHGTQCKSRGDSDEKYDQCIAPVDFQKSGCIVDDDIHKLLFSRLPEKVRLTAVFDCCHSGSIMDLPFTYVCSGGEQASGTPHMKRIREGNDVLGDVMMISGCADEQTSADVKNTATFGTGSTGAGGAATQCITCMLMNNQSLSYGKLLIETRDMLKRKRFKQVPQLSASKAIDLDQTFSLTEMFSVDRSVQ
The test is described as follows: Inhibition of Trypanosoma brucei MAC3.

The next test deals with T3, Caspase-3 (Homo sapiens) (UniProt P42574).
T3 sequence (whole entry): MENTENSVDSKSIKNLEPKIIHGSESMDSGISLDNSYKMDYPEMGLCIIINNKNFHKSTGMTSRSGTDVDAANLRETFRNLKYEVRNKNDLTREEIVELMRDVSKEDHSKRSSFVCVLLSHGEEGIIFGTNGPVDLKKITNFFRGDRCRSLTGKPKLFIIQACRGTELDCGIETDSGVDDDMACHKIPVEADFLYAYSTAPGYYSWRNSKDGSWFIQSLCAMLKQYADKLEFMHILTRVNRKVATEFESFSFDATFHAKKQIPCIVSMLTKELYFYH
The test is described as follows: Inhibition of human caspase 3.

Each structure is given as a SMILES string. Active and inactive are the calls of the source. The calls are words filed in the database; no cut-off is given here. Some results are limits rather than exact numbers.

As for `N#C[C@H](Cc1ccc(N)cc1)NC(=O)OCc1ccccc1`, the IC50 in test [1] is 30.3 µM; against Metacaspase-2 it was above 100 µM; in the test with Plasmodium falciparum, 16.6 µM; with Leishmania infantum, above 64 µM; in the test with MRC5, above 64 µM; with Trypanosoma cruzi it was 28.6 µM.
Regarding `N#CCN(C(=O)OCc1ccccc1)C1CCNCC1`, the IC50 in test [1] was 32.5 µM; on Metacaspase-2, above 100 µM; in the test with Plasmodium falciparum, 28 µM; in the test on Leishmania infantum, above 64 µM; in the test on MRC5 it was above 64 µM; in the test on Trypanosoma cruzi it was 34.6 µM.
`NC(N)=NCCCC[C@H](NC(=O)OCc1ccccc1)C(=O)c1nc2ccccc2s1`: the IC50 in test [1] turned out to be 11.4 µM; at Metacaspase-2, 4 µM; in the test on Plasmodium falciparum, 5.6 µM; in the test with Leishmania infantum it was 45.4 µM; with MRC5, 19 µM; in the test with Trypanosoma cruzi, 5.5 µM.
As to `Cn1c(C(=O)[C@H](CCCNC(=N)N)NC(=O)OCc2ccccc2)nc2ccccc21`, the IC50 was 32.5 µM in test [1]; 38.4 µM against Metacaspase-2; 7.1 µM with Plasmodium falciparum; above 64 µM in the test on Leishmania infantum; above 64 µM with MRC5; 28.3 µM in the test on Trypanosoma cruzi. In test [2], the inhibition entry is “Active”. At Caspase-3 (Homo sapiens), the inhibition result was “inactive”.
As to `N#C[C@H](CCCNC(=N)N)NC(=O)OCc1ccccc1`, the half-maximal inhibitory concentration (IC50) in test [1] is above 64 µM; on Metacaspase-2 it was 1.9 µM; in the test on Plasmodium falciparum it was 50.2 µM; with Leishmania infantum, above 64 µM; in the test on MRC5, above 64 µM; with Trypanosoma cruzi it was above 64 µM. The inhibition result in test [2] was “Active”. Also, at Caspase-3 (Homo sapiens), the inhibition entry was “inactive”.
Turning to `CC(C)C(NC(=O)OCc1ccccc1)C(=O)N[C@@H](CCCNC(=N)N)C(=O)c1nc2ccccc2s1` (some centres not stated), the IC50 in test [1] is 11.2 µM; at Metacaspase-2 it was 1.1 µM; with Plasmodium falciparum, 3.3 µM; in the test with Leishmania infantum, above 64 µM; in the test on MRC5, 32.6 µM; with Trypanosoma cruzi it was 7.3 µM.
Consider `N#CCN(CCCCN1CCCC1)C(=O)OCc1ccccc1`, for which the IC50 in test [1] is 52.1 µM; against Metacaspase-2, above 100 µM; with Plasmodium falciparum it was 20.5 µM; in the test on Leishmania infantum it was above 64 µM; with MRC5 it was above 64 µM; with Trypanosoma cruzi, above 64 µM.
In the case of `N#CCN(CCCCN1CCN(c2ccc(F)cc2)CC1)C(=O)OCc1ccccc1`, the IC50 was 22.6 µM in test [1]; above 100 µM against Metacaspase-2; above 64 µM in the test on Plasmodium falciparum; above 64 µM in the test on Leishmania infantum; above 64 µM with MRC5; 7 µM with Trypanosoma cruzi.
`N=C(N)NCCC[C@@H](/C=C/S(=O)(=O)c1ccccc1)NC(=O)OCc1ccccc1`: the IC50 in test [1] is 45.3 µM; at Metacaspase-2, 3.9 µM; in the test on Plasmodium falciparum, 3.4 µM; with Leishmania infantum it was above 64 µM; with MRC5, above 64 µM; in the test with Trypanosoma cruzi, 19 µM.
As for `NCCCC[C@H](NC(=O)OCc1ccccc1)C(=O)c1nc2ccccc2s1`, the IC50 in test [1] is 10.6 µM; against Metacaspase-2, 1.6 µM; in the test on Plasmodium falciparum it was 3 µM; in the test with Leishmania infantum, 22.8 µM; in the test on MRC5, 20 µM; with Trypanosoma cruzi, 10.8 µM.
Turning to `CC(C)CC(NC(=O)OCc1ccccc1)C(=O)N[C@@H](CCCNC(=N)N)C(=O)c1nc2ccccc2s1` (some centres not stated), the IC50 in test [1] was determined as 5.7 µM; on Metacaspase-2, 1.4 µM; in the test on Plasmodium falciparum it was 2.6 µM; in the test on Leishmania infantum, 36.8 µM; in the test with MRC5, 29 µM; in the test with Trypanosoma cruzi, 5.6 µM.
`N=C(N)NCCC[C@H](NC(=O)OCc1ccccc1)C(=O)c1nccs1`: the IC50 in test [1] is above 64 µM; against Metacaspase-2 it was 2.2 µM; in the test with Plasmodium falciparum it was 24.7 µM; in the test on Leishmania infantum, above 64 µM; in the test with MRC5, above 64 µM; in the test on Trypanosoma cruzi, 38.7 µM. In test [2], the inhibition result was “Active”.
For `N#CCN(CCCCN1CCN(C(c2ccc(F)cc2)c2ccc(F)cc2)CC1)C(=O)OCc1ccccc1`, the IC50 in test [1] was 2.1 µM; at Metacaspase-2 it was above 100 µM; in the test on Plasmodium falciparum, 7.6 µM; in the test on Leishmania infantum it was 5.9 µM; in the test with MRC5, 11.3 µM; with Trypanosoma cruzi, 2.6 µM.
With `N=C(N)NCCC[C@H](NC(=O)OCc1ccccc1)C(=O)c1nc2ccccc2s1`, the IC50 in test [1] was 32.9 µM; at Metacaspase-2 it was 0.6 µM; in the test with Plasmodium falciparum it was 8 µM; with Leishmania infantum it was above 64 µM; in the test with MRC5, above 64 µM; in the test on Trypanosoma cruzi, 20.9 µM. Besides, the inhibition entry in test [2] was “Active”. For the same compound, the inhibition entry on Caspase-3 (Homo sapiens) was “inactive”.
With `N#CCN(CCCCn1ccnc1)C(=O)OCc1ccccc1`, the IC50 in test [1] was above 64 µM; against Metacaspase-2, above 100 µM; with Plasmodium falciparum, 17.2 µM; in the test with Leishmania infantum it was above 64 µM; with MRC5 it was above 64 µM; in the test on Trypanosoma cruzi, 35.7 µM.
For `N#CCN(CCCCO)C(=O)OCc1ccccc1`, the 50% inhibitory concentration (IC50) in test [1] was above 64 µM; on Metacaspase-2, above 100 µM; in the test on Plasmodium falciparum, above 64 µM; in the test on Leishmania infantum, above 64 µM; with MRC5, above 64 µM; in the test with Trypanosoma cruzi, above 64 µM.
For `N#CCN(CCCCN1CCCCC1)C(=O)OCc1ccccc1`, the IC50 is above 64 µM in test [1]; above 100 µM on Metacaspase-2; 6.9 µM in the test with Plasmodium falciparum; above 64 µM with Leishmania infantum; above 64 µM in the test with MRC5; above 64 µM with Trypanosoma cruzi.
Regarding `N=C(N)NCCC[C@H](NC(=O)OCc1ccccc1)C(=O)c1ccccn1`, the IC50 was above 64 µM in test [1]; 62 µM against Metacaspase-2; above 64 µM in the test with Plasmodium falciparum; above 64 µM in the test with Leishmania infantum; above 64 µM in the test on MRC5; above 64 µM in the test with Trypanosoma cruzi. Moreover, the inhibition entry in test [2] was “Active”.
For `N#C[C@H](Cc1ccc(NC(=N)N)cc1)NC(=O)OCc1ccccc1`, the IC50 is above 64 µM in test [1]; above 100 µM on Metacaspase-2; 25.4 µM with Plasmodium falciparum; above 64 µM in the test with Leishmania infantum; above 64 µM with MRC5; 27.2 µM with Trypanosoma cruzi.
